According to US8791303B2, “Herbicides” (Syngenta Limited, priority 2009, dated 2014):

What was measured:
[1] = system: Avena fatua (AVEFA); assay: Example A glasshouse herbicide test, post-emergence, AVEFA; format: in vivo; settings: Avena fatua, post-emergence, 312 h, Rate 250 g/ha, sprayed after 8 days cultivation, evaluated after 13 days, read-out: Post-Emergence Activity AVEFA (100=total damage to plant; 0=no damage to plant)
Method in brief: (§1)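 Plants in pots of standard soil receive a spray of compound in acetone/water (50:50) plus 0.5% Tween 20, either one day (pre-emergence) or 8 days (post-emergence) after sowing. Phytotoxicity is assessed 13 days later, 0–100.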

[2] = system: Alopecurus myosuroides (ALOMY); assay: Example A glasshouse herbicide test, pre-emergence, ALOMY; format: in vivo; settings: Alopecurus myosuroides, pre-emergence, 312 h, Rate 250 g/ha, sprayed after cultivation for one day, evaluated after 13 days, read-out: Pre-Emergence Activity ALOMY (100=total damage to plant; 0=no damage to plant)
Method in brief: as §1

[3] = system: Echinochloa crus-galli (ECHCG); assay: Example A glasshouse herbicide test, pre-emergence, ECHCG; format: in vivo; settings: Echinochloa crus-galli, pre-emergence, 312 h, Rate 250 g/ha, sprayed after cultivation for one day, evaluated after 13 days, read-out: Pre-Emergence Activity ECHCG (100=total damage to plant; 0=no damage to plant)
Method in brief: as §1

[4] = system: Echinochloa crus-galli (ECHCG); assay: Example A glasshouse herbicide test, post-emergence, ECHCG; format: in vivo; settings: Echinochloa crus-galli, post-emergence, 312 h, Rate 250 g/ha, sprayed after 8 days cultivation, evaluated after 13 days, read-out: Post-Emergence Activity ECHCG (100=total damage to plant; 0=no damage to plant)
Method in brief: as §1

[5] = system: Lolium perenne (LOLPE); assay: Example A glasshouse herbicide test, post-emergence, LOLPE; format: in vivo; settings: Lolium perenne, post-emergence, 312 h, Rate 250 g/ha, sprayed after 8 days cultivation, evaluated after 13 days, read-out: Post-Emergence Activity LOLPE (100=total damage to plant; 0=no damage to plant)
Method in brief: as §1

[6] = system: Alopecurus myosuroides (ALOMY); assay: Example A glasshouse herbicide test, post-emergence, ALOMY; format: in vivo; settings: Alopecurus myosuroides, post-emergence, 312 h, Rate 250 g/ha, sprayed after 8 days cultivation, evaluated after 13 days, read-out: Post-Emergence Activity ALOMY (100=total damage to plant; 0=no damage to plant)
Method in brief: as §1

[7] = system: Lolium perenne (LOLPE); assay: Example A glasshouse herbicide test, pre-emergence, LOLPE; format: in vivo; settings: Lolium perenne, pre-emergence, 312 h, Rate 250 g/ha, sprayed after cultivation for one day, evaluated after 13 days, read-out: Pre-Emergence Activity LOLPE (100=total damage to plant; 0=no damage to plant)
Method in brief: as §1

[8] = system: Avena fatua (AVEFA); assay: Example A glasshouse herbicide test, pre-emergence, AVEFA; format: in vivo; settings: Avena fatua, pre-emergence, 312 h, Rate 250 g/ha, sprayed after cultivation for one day, evaluated after 13 days, read-out: Pre-Emergence Activity AVEFA (100=total damage to plant; 0=no damage to plant)
Method in brief: as §1

[9] = system: Winter Wheat variety 'Hereward'; assay: Example B crop damage test, post-emergence, wheat seed treated with safener cloquintocet mexyl; format: in vivo; settings: Rate 250 g/ha; post-emergence spray 8 days after sowing; seed treated with cloquintocet mexyl 0.5 g/kg dry seed; evaluated after 13 days
Method in brief: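 Wheat seed pre-treated with cloquintocet mexyl at 0.5 g/kg seed, sown 8 days before post-emergence spraying of compound in acetone/water (50:50) with 0.5% Tween 20. Glasshouse at 24/16° C, 14 h light, 65% humidity. Damage scored visually after 13 days, 0 (none) to 100 (total).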

[10] = system: Winter Wheat variety 'Hereward'; assay: Example B crop damage test, post-emergence, unsafened wheat; format: in vivo; settings: Rate 250 g/ha; post-emergence spray after 8 days cultivation; no safener; evaluated after 13 days
Method in brief: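 Winter wheat 'Hereward' was sprayed post-emergence 8 days after sowing, using formulated active ingredient in acetone/water (50:50) with 0.5% Tween 20. Plants grew in a glasshouse at 24/16 °C day/night, 14 h light and 65% humidity. Damage was scored 13 days later (0 = none, 100 = total).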

SMILES	melting point	pest or weed control at 250 g/ha [1]	pest or weed control at 250 g/ha [2]	pest or weed control at 250 g/ha [3]	pest or weed control at 250 g/ha [4]	pest or weed control at 250 g/ha [5]	pest or weed control at 250 g/ha [6]	pest or weed control at 250 g/ha [7]	pest or weed control at 250 g/ha [8]	Winter Wheat (Hereward) + cloquintocet mexyl damage (100=total damage to plant; 0=no damage to plant) [9]	Winter Wheat (Hereward) damage (100=total damage to plant; 0=no damage to plant) [10]
Cc1cc(C)c(C2C(=O)CC(Cc3ccc(F)cc3)C2=O)c(C)c1 (centres unmarked) [Compound A12]	183.1 to 183.2 °C	–	–	–	–	–	–	–	–	–	–
Cc1cc(C)c(C2C(=O)CC(Cc3cccc(Oc4ccccc4)c3)C2=O)c(C)c1 (centres unmarked) [Compound A13]	192 to 194.8 °C	30%	10%	20%	20%	20%	30%	40%	0%	–	–
Cc1cc(C)c(C2C(=O)CC(Cc3ccccc3F)C2=O)c(C)c1 (centres unmarked) [Compound A14]	197.8 to 210.2 °C	30%	70%	90%	80%	90%	80%	100%	40%	20	30
Cc1cc(C)c(C2C(=O)CC(Cc3ccccc3C)C2=O)c(C)c1 (centres unmarked) [Compound A15]	210 to 215.5 °C	50%	70%	60%	40%	90%	80%	100%	70%	20	30
Cc1cc(C)c(C2C(=O)CC(Cc3ccc(-c4csnn4)cc3)C2=O)c(C)c1 (centres unmarked) [Compound A16]	225 to 232 °C	50%	10%	80%	50%	30%	20%	70%	30%	–	–
Cc1cc(C)c(C2C(=O)CC(Cc3ccccc3)C2=O)c(C)c1 (centres unmarked) [Compound A17]	160 to 165 °C	40%	50%	70%	60%	80%	80%	90%	30%	10	10
Cc1cccc(CC2CC(=O)C(c3c(C)cc(C)cc3C)C2=O)c1 (centres unmarked) [Compound A18]	173 to 179 °C	50%	80%	100%	50%	90%	80%	100%	50%	10	20
Cc1cc(C)c(C2C(=O)CC(Cc3ccc(C#N)cc3)C2=O)c(C)c1 (centres unmarked) [Compound A19]	249 to 251 °C	60%	80%	100%	90%	90%	90%	90%	40%	10	60
Cc1cc(C)c(C2C(=O)CC(Cc3cc(F)cc(F)c3)C2=O)c(C)c1 (centres unmarked) [Compound A20]	193 to 193.2 °C	30%	30%	80%	50%	50%	20%	100%	20%	0	10
Cc1cc(C)cc(CC2CC(=O)C(c3c(C)cc(C)cc3C)C2=O)c1 (centres unmarked) [Compound A21]	181 to 184 °C	20%	60%	90%	60%	30%	40%	100%	20%	20	20
Cc1cc(C)c(C2C(=O)CC(Cc3ccc(CS(=O)(=O)c4ccccc4)cc3)C2=O)c(C)c1 (centres unmarked) [Compound A22]	189 to 191.7 °C	10%	0%	30%	20%	20%	0%	20%	0%	–	–
Cc1cc(C)c(C2C(=O)CC(Cc3ccc(S(C)(=O)=O)cc3)C2=O)c(C)c1 (centres unmarked) [Compound A23]	235.3 to 238.6 °C	90%	90%	90%	90%	50%	90%	100%	80%	50	50
